Key:
PRMT5 [1] = target: T1, PRMT5 (Homo sapiens, UniProt O14744); test: PRMT5 biochemical IC50 assay with SAM as cofactor; details: PRMT5, SAM as cofactor; read-out: SAM IC50
T1 construct: purchased Viva (custom protein)

PRMT5 [2] = target: T1, PRMT5; test: PRMT5 biochemical IC50 assay with no cofactor; details: PRMT5, no cofactor
Text: Table 1 indicates IC50 values (μM) against PRMT5 for exemplary compounds in the presence of SAM as cofactor, with no cofactor, and with MTA as cofactor, respectively (columns 4-6). […] Ki values can be calculated from the IC50 values as described in the Examples section. As detailed in the Examples section, for the assay performed in the presence of SAM, IC50=Ki×1.5 (Ki=IC50/1.5).

PRMT5 [3] = target: T1, PRMT5; test: PRMT5 biochemical IC50 assay with MTA as cofactor; details: PRMT5, MTA as cofactor; read-out: MTA IC50
[4] = system: HAP1 MTAP-intact cell line; test: SDMA in-cell western assay, HAP1 MTAP-intact; type: cell-based; details: Homo sapiens, HAP1, SDMA in-cell western, HAP1 MTAP-intact; read-out: MTAP HAP1 intact IC50
Method in brief: (§1)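 IC50 values come from SDMA signal quantified by in-cell western in two HAP1 lines, one with native MTAP levels and one lacking MTAP.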

[5] = system: HAP1 MTAP-deleted cell line; test: SDMA in-cell western assay, HAP1 MTAP-deleted; type: cell-based; details: for IC50: Homo sapiens, HAP1, SDMA in-cell western, HAP1 MTAP-deleted; for MTAP intact/deleted ratio: SDMA in-cell western
Method in brief: as §1

[6] = system: HAP1 MTAP-deleted cell line; test: Viability assay, MTAP-deleted cell line; type: cell-based; details: Homo sapiens, read-out: HAP1 MTAP deleted viability
Text: Table 1 additionally indicates IC50 values in a viability assay for the MTAP-deleted cell line (column 10), indicating the effect of treatment with compound on cell survival.

[7] = read-out: No Cofactor/ rel IC50
[8] = read-out: HAP 1 MTAP deleted IC50
[9] = IC50 ratio HAP1 MTAP-intact / HAP1 MTAP-deleted
[10] = read-out: HAP1 MTAP deleted IC50
[11] = HAP1, viability assay, MTAP-deleted cell line

T1 sequence (O14744 whole entry): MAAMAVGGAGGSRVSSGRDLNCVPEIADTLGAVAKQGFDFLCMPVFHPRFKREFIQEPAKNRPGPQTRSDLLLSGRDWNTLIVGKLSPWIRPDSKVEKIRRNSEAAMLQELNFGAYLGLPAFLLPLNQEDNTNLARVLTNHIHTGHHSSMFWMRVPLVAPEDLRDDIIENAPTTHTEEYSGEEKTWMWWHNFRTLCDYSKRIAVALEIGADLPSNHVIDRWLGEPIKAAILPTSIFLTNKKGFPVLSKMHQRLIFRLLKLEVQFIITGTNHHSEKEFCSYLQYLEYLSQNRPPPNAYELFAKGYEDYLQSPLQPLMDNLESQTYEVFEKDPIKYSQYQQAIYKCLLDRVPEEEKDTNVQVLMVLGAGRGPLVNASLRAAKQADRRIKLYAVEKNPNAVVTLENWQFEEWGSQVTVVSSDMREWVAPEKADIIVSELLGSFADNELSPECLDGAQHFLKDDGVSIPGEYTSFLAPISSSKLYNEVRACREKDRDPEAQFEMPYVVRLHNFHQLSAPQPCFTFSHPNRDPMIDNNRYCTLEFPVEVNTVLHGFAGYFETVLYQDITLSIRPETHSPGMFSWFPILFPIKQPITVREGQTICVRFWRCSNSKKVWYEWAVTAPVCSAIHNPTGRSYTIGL
T1 sequence (Q9BQA1 whole entry partner): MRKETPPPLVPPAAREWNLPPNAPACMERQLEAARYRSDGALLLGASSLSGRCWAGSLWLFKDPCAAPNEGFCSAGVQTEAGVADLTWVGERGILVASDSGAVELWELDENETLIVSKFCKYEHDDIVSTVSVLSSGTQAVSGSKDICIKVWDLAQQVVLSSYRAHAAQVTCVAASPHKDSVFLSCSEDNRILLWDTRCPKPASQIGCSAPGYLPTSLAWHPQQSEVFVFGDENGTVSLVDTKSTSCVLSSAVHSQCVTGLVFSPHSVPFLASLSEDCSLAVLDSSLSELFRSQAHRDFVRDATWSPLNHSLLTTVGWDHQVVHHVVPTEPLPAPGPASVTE

SMILES | IC50 (PRMT5 [1]) | IC50 (PRMT5 [2]; [7]) | IC50 (PRMT5 [3]) | IC50 [4] | IC50 [5, 8] | IC50 (PRMT5 [2]; read-out: No Cofactor/rel IC50) | IC50 [5, 10] | MTAP intact/deleted ratio [5, 9] | IC50 ([6]; HAP1, viability, HAP1 MTAP-deleted cell line) | MTAP intact/deleted ratio ([5]; IC50 ratio HAP1 MTAP-intact vs HAP1 MTAP-deleted) | IC50 [6, 11] | IC50 ([6]; HAP1, viability assay, HAP1 MTAP-deleted)
CCc1cc(NC(=O)C(=O)N2C[C@H](C)[C@H](OC)C[C@H]2c2ccc(N3CCN(C)CC3)cc2)cnc1N (single isomer, unassigned) [Compound 1089] | 50 to 500 nM | – | < 50 nM | 100 to 1000 nM | – | 50 to 500 nM | < 100 nM | – | – | A (an IC50 ratio greater than or equal to 10 fold) | < 1000 nM | –
Cc1cc(NC(=O)C(=O)N2CCCC[C@@H]2c2ccncc2)cnc1N (single isomer, unassigned) [Compound 50] | 50 to 500 nM | 50 to 500 nM | < 50 nM | > 1000 nM | 100 to 1000 nM | – | – | B (an IC50 ratio greater than or equal to 3 fold but lower than 10 fold) | – | – | > 10000 nM | –
Cc1cc(NC(=O)C(=O)N2C[C@H](C)CC[C@@H]2c2ccnn2C)cnc1N (racemic) [Compound 66, rac-N-(6-amino-5-methylpyridin-3-yl)-2-((2R,5R)-5-methyl-2-(1-methyl-1H-pyrazol-5-yl)piperidin-1-yl)-2-oxoacetamide] | 50 to 500 nM | 50 to 500 nM | < 50 nM | > 1000 nM | 100 to 1000 nM | – | – | A (an IC50 ratio greater than or equal to 10 fold) | – | – | > 10000 nM | –
Cc1cc(NC(=O)C(=O)N2C[C@H](C)CC[C@H]2c2cccc(N3CCN(C)CC3)c2)cnc1N (single isomer, unassigned) [Compound 1121] | > 500 nM | – | > 500 nM | > 1000 nM | – | > 500 nM | > 1000 nM | – | – | – | > 10000 nM | –
N#C[C@H]1CCN(C(=O)C(=O)Nc2cncc(C(N)=O)c2)[C@@H](c2ccccc2)C1 (single isomer, unassigned) [Compound 352] | 50 to 500 nM | – | < 50 nM | > 1000 nM | – | 50 to 500 nM | 100 to 1000 nM | A (an IC50 ratio greater than or equal to 10 fold) | – | – | > 10000 nM | –

The next lines start with results.

IC50 (PRMT5 [1]) | IC50 (PRMT5 [2]; [7]) | IC50 (PRMT5 [3]) | IC50 [4] | IC50 [5, 8] | IC50 (PRMT5 [2]; read-out: No Cofactor/rel IC50) | IC50 [5, 10] | SMILES | MTAP intact/deleted ratio [5, 9] | IC50 ([6]; HAP1, viability, HAP1 MTAP-deleted cell line) | MTAP intact/deleted ratio ([5]; IC50 ratio HAP1 MTAP-intact vs HAP1 MTAP-deleted) | IC50 [6, 11] | IC50 ([6]; HAP1, viability assay, HAP1 MTAP-deleted)
50 to 500 nM | < 50 nM | < 50 nM | 100 to 1000 nM | < 100 nM | – | – | C[C@@H]1CC[C@@H](c2ccc3c(cnn3CCN(C)C)c2)N(C(=O)C(=O)Nc2cnc(N)c(C3CC3)c2)C1 (single isomer, unassigned) [Compound 1249] | A (an IC50 ratio greater than or equal to 10 fold) | < 1000 nM | – | – | –
50 to 500 nM | – | < 50 nM | > 1000 nM | – | 50 to 500 nM | 100 to 1000 nM | Cc1cc(NC(=O)C(=O)N2C[C@H](C)CC[C@H]2c2ccc(NCC(F)(F)F)cc2)cnc1N (single isomer, unassigned) [Compound 522] | A (an IC50 ratio greater than or equal to 10 fold) | – | – | 1000 to 10000 nM | –
> 500 nM | – | > 500 nM | > 1000 nM | – | > 500 nM | > 1000 nM | Cc1cc(NC(=O)C(=O)N2C[C@@H](C)CC[C@@H]2c2ccc(N)nc2)cnc1N (single isomer, unassigned) [Compound 860] | B (an IC50 ratio greater than or equal to 3 fold but lower than 10 fold) | – | – | – | > 10000 nM
> 500 nM | – | > 500 nM | > 1000 nM | – | > 500 nM | > 1000 nM | Cc1cc(NC(=O)C(=O)N2C[C@H](C)CC[C@H]2c2cc3cn[nH]c3s2)cnc1N (single isomer, unassigned) [Compound 1120] | – | – | – | > 10000 nM | –
50 to 500 nM | – | 50 to 500 nM | > 1000 nM | – | 50 to 500 nM | 100 to 1000 nM | Cc1n[nH]c2ccc([C@@H]3CC[C@@H](C)CN3C(=O)C(=O)Nc3cncc(C(N)=O)c3)cc12 (racemic) [Compound 500, rac-5-[[2-[(2S,5R)-5-Methyl-2-(3-methyl-1H-indazol-5-yl)-1-piperidyl]-2-oxo-acetyl]amino]pyridine-3-carboxamide] | A (an IC50 ratio greater than or equal to 10 fold) | – | – | 1000 to 10000 nM | –
